Experimental data: US7501423B2, “Tubulin inhibitor and process for its preparation” (Wyeth, priority 2005, dated 2009)
Counter-ions that a name gives are not always drawn.

Assay: hygroscopic character of the salt forms
Format: physicochemical
Conditions: solid salt form; no method or figures given

**Q.** Which “hygroscopicity (hygroscopic character of the salt)” value does the source give for “6-chloro-5-{2,6-difluoro-4-[3-(methylamino)propoxy]phenyl}-2-pyrazin-2-yl-N-[(1S)-2,2,2-trifluoro-1-methylethyl]pyrimidin-4-amine hemifumarate” here?
**A.** The value was “essentially avoids the disadvantage of the hygroscopic character”.

**Q.** Which “hygroscopicity (hygroscopic character of the salt)” value does the source give for `CNCCCOc1cc(F)c(-c2c(Cl)nc(-c3cnccn3)nc2N[C@@H](C)C(F)(F)F)c(F)c1` [hydrochloride, 6-chloro-5-{2,6-difluoro-4-[3-(methylamino)propoxy]phenyl}-2-pyrazin-2-yl-N-[(1S)-2,2,2-trifluoro-1-methylethyl]pyrimidin-4-amine] here?
**A.** Its value is “very hygroscopic”.
